This assay deals with T1, N-terminal 6His-tagged ROCK2 catalytic domain 11-552 (Homo sapiens, UniProt O75116).
T1 construct: N-terminal 6His-tagged ROCK2 catalytic domain 11-552; 6His (N); purchased Dundee University, UK; host or cells: baculovirus expression system
T1 sequence (O75116 11-552): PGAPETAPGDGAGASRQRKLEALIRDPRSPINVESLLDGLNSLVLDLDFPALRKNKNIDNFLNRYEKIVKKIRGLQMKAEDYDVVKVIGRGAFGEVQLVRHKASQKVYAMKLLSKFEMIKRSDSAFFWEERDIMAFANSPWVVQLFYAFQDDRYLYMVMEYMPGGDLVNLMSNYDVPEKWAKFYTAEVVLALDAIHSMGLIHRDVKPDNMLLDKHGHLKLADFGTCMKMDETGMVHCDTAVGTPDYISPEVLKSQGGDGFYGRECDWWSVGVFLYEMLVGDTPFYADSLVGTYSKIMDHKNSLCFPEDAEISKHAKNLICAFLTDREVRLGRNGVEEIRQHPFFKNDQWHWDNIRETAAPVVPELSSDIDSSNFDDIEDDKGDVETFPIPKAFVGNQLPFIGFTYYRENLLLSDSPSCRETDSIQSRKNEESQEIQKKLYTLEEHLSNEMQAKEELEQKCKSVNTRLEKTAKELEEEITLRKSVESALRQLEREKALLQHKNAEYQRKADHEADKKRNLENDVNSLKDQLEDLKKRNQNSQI
Kind of assay: ROCK2 binding activity: ROCK2 inhibition, ADP-Glo Kinase Assay. The class given is biochemical. As to conditions: 1.25 nM ROCK2, 100 μM long S6 peptide, 20 μM ATP; 1 hour pre-incubation; read-out: ADP-Glo kinase activity assay ROCK2 Category. As to the method:
Assay for ROCK2 inhibition was performed using the protein construct N-terminal 6His-tagged ROCK2 catalytic domain 11-552 (Dundee University, UK). Protein was purified from a baculovirus expression system. Long S6 peptide ([…]) was used as substrate. Kinase reactions were carried out in 15 μl volume in a 96-well plate (black, half area) using 1.25 nM constitutively active ROCK2 kinase, 100 μM long S6 peptide, 20 μM ATP and test compound in DMSO (or DMSO only for controls). The final concentration of DMSO was 1%. Assay buffer was 50 mM HEPES pH 7.5 supplemented with 0.2 mM EDTA, 10 mM magnesium acetate, 0.01% Tween-20, 1 mM DTT and 0.01% BSA. Test compounds were pre-incubated with ROCK2 kinase for 1 hour before addition of ATP and long S6 peptide. After incubation for a further 1 hour, the amount of ADP produced was measured using ADP-Glo Kinase Assay (Promega) as per manufacturer's instructions. The luminescence was measured on a PHERAstar FS (BMG Labtech). The concentration of test compound required to inhibit ADP production by 50% (the IC50) was calculated using a four-parameter logistic function with software by Dotmatics.
The category “+” refers to compounds with a ROCK2 IC50 value of >10 μM. The category “++” refers to compounds with a ROCK2 IC50 value of 10 to 3 μM. The category “+++” refers to compounds with a ROCK2 IC50 value of 3 to 0.3 μM. The category “++++” refers to compounds with a ROCK2 IC50 value of <0.3 μM.
On the technique in general: ADP-Glo first removes unused ATP, then detects ADP through luciferase.
Turning to `Cn1nc(-c2ccc3c(c2)CCN(C(=O)C(C)(C)C)C3)nc1Nc1ccc2[nH]ncc2c1Cl` [Example 371], the IC50 is less than 300 nM.

With `CS(=O)(=O)NCCOc1ccc(-c2nnc(Nc3ccc4[nH]ncc4c3)[nH]2)cc1` [Example 220, N-[2-[4-[5-(1H-Indazol-5-ylamino)-4H-1,2,4-triazol-3-yl]phenoxy]ethyl]methanesulfonamide], the IC50 fell in the range of 300 to 3000 nM. On to `Cn1nc(-c2ccc(C(=O)NCC(F)(F)F)cc2)nc1Nc1ccc2[nH]ncc2c1C1CC1` [Example 343, 4-[5-[(4-cyclopropyl-1H-indazol-5-yl)amino]-1-methyl-1,2,4-triazol-3-yl]-N-(2,2,2-trifluoroethyl)benzamide], for which the IC50 was less than 300 nM.

On to `COC(=O)c1ccc(-c2nc(Nc3ccc4[nH]ncc4c3C3CC3)n(C)n2)cc1OC` [Example 375], for which the IC50 is less than 300 nM.

Turning to `COc1cc(-c2nc(Nc3ccc4[nH]ncc4c3)n[nH]2)ccc1OCC(=O)NC1CN(C(C)=O)C1` [Example 227, N-(1-acetylazetidin-3-yl)-2-[4-[5-(1H-indazol-5-ylamino)-4H-1,2,4-triazol-3-yl]-2-methoxy-phenoxy]acetamide], the IC50 lay within 300 to 3000 nM.

On to `CCNC(=O)c1ccc(-c2nc(Nc3ccc4[nH]ncc4c3CC)n(C)n2)cc1` [Example 323], for which the IC50 is less than 300 nM. Regarding `Cn1nc(-c2ccc(S(N)(=O)=O)cc2)nc1Nc1ccc2[nH]ncc2c1Cl` [Example 125], the IC50 was less than 300 nM. Take `COCCn1nc(-c2ccc(C(=O)NCC(F)(F)F)c(C)c2)nc1Nc1ccc2[nH]ncc2c1C1CC1` [Example 337]: the IC50 was less than 300 nM.

In the case of `CNC(=O)COc1ccc(-c2nnc(Nc3ccc4[nH]ncc4c3)[nH]2)cc1OC` [Example 9], the IC50 lay within 300 to 3000 nM.

`Cn1nc(-c2cccnc2)nc1Nc1ccc2[nH]ncc2c1Cl` [Example 93]: the IC50 was 3000 to 10000 nM.

For `CC(=O)N1CCc2cc(-c3nc(Nc4ccc5[nH]ncc5c4C4CC4)n(C)n3)ccc2C1C` (stereo not shown) [Example 248, 1-[6-[5-[(4-cyclopropyl-1H-indazol-5-yl)amino]-1-methyl-1,2,4-triazol-3-yl]-1-methyl-3,4-dihydro-1H-isoquinolin-2-yl]ethanone], the IC50 was less than 300 nM.

In the case of `CCc1c(Nc2nc(-c3ccc(C(=O)NCC(F)(F)F)cc3)nn2C)ccc2[nH]ncc12` [Example 423], the IC50 is less than 300 nM. With `CC(C)NC(=O)COc1ccc(-c2nc(Nc3ccc4[nH]ncc4c3Cl)n(C)n2)c(Cl)c1` [Example 352], the IC50 was less than 300 nM. Turning to `COc1cc(-c2nc(Nc3cc4cn[nH]c4cc3Cl)n(C)n2)ccc1C(=O)NCC(F)(F)F` [Example 144], the IC50 was in the range of 3000 to 10000 nM. For the compound `Cn1nc(-c2ccc(C(=O)NCC(F)(F)F)nc2)nc1Nc1ccc2[nH]ncc2c1C1CC1` [Example 378], the IC50 is less than 300 nM. With `CN1CCc2cc(-c3nc(Nc4ccc5[nH]ncc5c4Cl)n(C)n3)ccc2C1` [Example 367], the IC50 is 3000 to 10000 nM. With `CN1CCc2cc(-c3nc(Nc4ccc5[nH]ncc5c4Cl)n(C)n3)ccc2C1=O` [Example 97], the IC50 is less than 300 nM.

With `CC(C)CC(=O)NCCOc1ccc(-c2nnc(Nc3ccc4[nH]ncc4c3)[nH]2)cc1` [Example 223], the IC50 lay within 3000 to 10000 nM. The figure for `COCCNC(=O)COc1ccc(-c2nc(Nc3ccc4[nH]ncc4c3Cl)n(C)n2)cc1OC` [Example 242, 2-[4-[5-[(4-chloro-1H-indazol-5-yl)amino]-1-methyl-1,2,4-triazol-3-yl]-2-methoxy-phenoxy]-N-(2-methoxyethyl)acetamide] is less than 300 nM; for `Cn1nc(-c2ccc(OC(F)(F)F)cc2)nc1Nc1ccc2[nH]ncc2c1Cl` [Example 138] it is less than 300 nM. With `CC(C)NC(=O)COc1cccc(-c2nnc(Nc3ccc4[nH]ncc4c3)[nH]2)c1` [Example 6], the IC50 was less than 300 nM.

With `CC(C)NC(=O)COc1ccc(-c2nnc(Nc3ccc4[nH]ncc4c3)n2-c2ccccn2)cc1` [Example 148], the IC50 is less than 300 nM. As for `Cc1cc(-c2nc(Nc3ccc4[nH]ncc4c3Cl)n(C)n2)ccc1OCC(=O)NC(C)C` [Example 350], the IC50 was less than 300 nM. Turning to `COc1cc(-c2nc(Nc3ccc4[nH]nc(Cl)c4c3)n(C)n2)ccc1C(=O)NCC(F)(F)F` [Example 429], the IC50 was less than 300 nM. For the compound `Cc1c(Nc2nc(-c3ccc(C(=O)NCC(F)(F)F)cc3)nn2C)ccc2[nH]ncc12` [Example 421], the IC50 was less than 300 nM. With `CN(C)C(=O)c1ccc(-c2nc(Nc3ccc4[nH]ncc4c3Cl)n(C)n2)cc1` [Example 82], the IC50 was in the range of 300 to 3000 nM. As to `COc1cc(-c2nc(Nc3ccc4[nH]ncc4c3Cl)n(C)n2)ccc1NCC(=O)NC(C)C` [Example 87], the IC50 was less than 300 nM.

For the compound `Cn1nc(-c2ccc(C(=O)NC3CC3)cc2)nc1Nc1ccc2[nH]ncc2c1Cl` [Example 177], the IC50 is less than 300 nM.

For `CCNC(=O)c1ccc(-c2nc(Nc3ccc4[nH]ncc4c3Cl)n(C)n2)c(Cl)c1` [Example 265], the IC50 is less than 300 nM. For `COc1ccc(-c2nnc(Nc3ccc4[nH]nc(C)c4c3)[nH]2)cc1` [Example 5], the IC50 was in the range of 3000 to 10000 nM. As to `CC(C)NC(=O)COc1c(F)cc(-c2nc(Nc3ccc4[nH]ncc4c3Cl)n(C)n2)cc1F` [Example 368], the IC50 is less than 300 nM. Turning to `Cn1nccc1-c1nc(Nc2ccc3[nH]ncc3c2Cl)n(C)n1` [Example 134], the IC50 was in the range of 300 to 3000 nM. For the compound `O=C(COc1ccc(-c2nnc(Nc3ccc4[nH]ncc4c3)[nH]2)cc1)NC1COC1` [Example 164], the IC50 was less than 300 nM. For `CN(C)CCNC(=O)c1ccc(-c2nc(Nc3ccc4[nH]ncc4c3Cl)n(C)n2)cc1` [Example 94], the IC50 was less than 300 nM.

Take `CC(C)NC(=O)COc1ccc(-c2nc(Nc3ccc4[nH]ncc4c3Cl)n(C)n2)cc1` [Example 471]: the IC50 is less than 300 nM.

With `Cc1cc(-c2nc(Nc3ccc4[nH]ncc4c3)n(C)n2)ccc1OCC(=O)NC(C)C` [Example 396], the IC50 was less than 300 nM. Consider `CC(C)NC(=O)COc1ccc(-c2nc(Nc3ccc4[nH]ncc4c3)n(C)n2)cc1C(F)(F)F` [Example 397], for which the IC50 is less than 300 nM. As for `CCc1c(Nc2nc(-c3ccc(C(=O)NCC(F)(F)F)c(C)c3)nn2C)ccc2[nH]ncc12` [Example 424], the figure is less than 300 nM; as for `CNC(=O)Nc1ccc(-c2nc(Nc3ccc4[nH]ncc4c3Cl)n(C)n2)cc1OC` [Example 71], less than 300 nM. In the case of `COc1cc(-c2nc(Nc3ccc4[nH]ncc4c3)n(C)n2)ccc1OCC(=O)NC(C)C` [Example 167], the IC50 was less than 300 nM.

Take `Cn1ccc(-c2nc(Nc3ccc4[nH]ncc4c3Cl)n(C)n2)n1` [Example 119]: the IC50 was in the range of 3000 to 10000 nM. Turning to `Cn1nc(-c2ccc(C3=NCC(C)(C)O3)cc2)nc1Nc1ccc2[nH]ncc2c1C1CC1` [Example 287], the IC50 was less than 300 nM. For the compound `CCNC(=O)c1ccc(-c2nc(Nc3ccc4[nH]ncc4c3Cl)n(C)n2)cc1C(F)(F)F` [Example 345], the IC50 is 3000 to 10000 nM. Consider `CCNC(=O)c1ccc(-c2nc(Nc3ccc4[nH]ncc4c3)n(C)n2)c(OC)c1` [Example 395], for which the IC50 is less than 300 nM.

Consider `Cn1nc(-c2ccc(C(=O)NC3(C(F)(F)F)CC3)cc2)nc1Nc1ccc2[nH]ncc2c1C1CC1` [Example 281], for which the IC50 was less than 300 nM. With `c1ccc(NCCOc2ccc(-c3nnc(Nc4ccc5[nH]ncc5c4)[nH]3)cc2)nc1` [Example 222], the IC50 is less than 300 nM. Take `COc1cc(-c2nc(Nc3ccc4[nH]ncc4c3Cl)n(C)n2)ccc1OCC(=O)NCCN(C)C` [Example 64]: the IC50 is less than 300 nM. Consider `CNC(=O)c1cccc(-c2nc(Nc3ccc4[nH]ncc4c3Cl)n(C)n2)c1` [Example 135], for which the IC50 was less than 300 nM. As for `CC(=O)NCc1ccc(-c2nc(Nc3ccc4[nH]ncc4c3Cl)n(C)n2)cc1` [Example 73], the IC50 lay in the range of 300 to 3000 nM. The figure for `Cn1nc(-c2cccc(N)c2)nc1Nc1ccc2[nH]ncc2c1Cl` [Example 120] is 3000 to 10000 nM.

On to `CCNC(=O)c1ccc(-c2nc(Nc3ccc4[nH]ncc4c3)n(C)n2)cc1C` [Example 394], for which the IC50 lay within 300 to 3000 nM. On to `Cn1nc(-c2ccncc2)nc1Nc1ccc2[nH]ncc2c1C1CC1` [Example 392], for which the IC50 was 300 to 3000 nM.

`Cn1nc(-c2ccc3c(c2)CNCC3)nc1Nc1ccc2[nH]ncc2c1C1CC1` [Example 389]: the IC50 is 3000 to 10000 nM. The figure for `COc1ccc(-c2nc(Nc3ccc4[nH]ncc4c3Cl)n(C)n2)cc1OC` [Example 77] is less than 300 nM; for `Cn1nc(-c2ccc(N)nc2)nc1Nc1ccc2[nH]ncc2c1Cl` [Example 70] it is 300 to 3000 nM; for `COCCn1nc(-c2ccc(C(=O)NCC(F)(F)F)c(OC)c2)nc1Nc1ccc2[nH]ncc2c1C` [Example 448] it is less than 300 nM. With `COc1cc(-c2nnc(Nc3ccc4[nH]ncc4c3)[nH]2)ccc1OCC(=O)NC1CCC1` [Example 165], the IC50 was less than 300 nM. As to `CC(C)NC(=O)NCc1ccc(-c2nnc(Nc3ccc4[nH]ncc4c3)[nH]2)cc1` [Example 41], the IC50 was in the range of 3000 to 10000 nM.

These data come from patent publication US11497751B2, “Modulators of Rho-associated protein kinase” (Redx Pharma PLC, priority 2018, dated 2022).
